20 compounds from US20230192705A1, “SHP2 INHIBITORS, COMPOSITIONS AND USES THEREOF” (Betta Pharmaceuticals Co., Ltd, priority 2020, published 2023) can be followed below.

As a reminder, the pIC50 is −log10 of the IC50, conventionally taken in molar units. The low end stands for a high IC50, the high end for a low IC50.

pIC50: −log10 of the molar value.

For this test, the target named is T1, SHP2 (Homo sapiens, UniProt Q06124).
T1 sequence (Q06124 1-593): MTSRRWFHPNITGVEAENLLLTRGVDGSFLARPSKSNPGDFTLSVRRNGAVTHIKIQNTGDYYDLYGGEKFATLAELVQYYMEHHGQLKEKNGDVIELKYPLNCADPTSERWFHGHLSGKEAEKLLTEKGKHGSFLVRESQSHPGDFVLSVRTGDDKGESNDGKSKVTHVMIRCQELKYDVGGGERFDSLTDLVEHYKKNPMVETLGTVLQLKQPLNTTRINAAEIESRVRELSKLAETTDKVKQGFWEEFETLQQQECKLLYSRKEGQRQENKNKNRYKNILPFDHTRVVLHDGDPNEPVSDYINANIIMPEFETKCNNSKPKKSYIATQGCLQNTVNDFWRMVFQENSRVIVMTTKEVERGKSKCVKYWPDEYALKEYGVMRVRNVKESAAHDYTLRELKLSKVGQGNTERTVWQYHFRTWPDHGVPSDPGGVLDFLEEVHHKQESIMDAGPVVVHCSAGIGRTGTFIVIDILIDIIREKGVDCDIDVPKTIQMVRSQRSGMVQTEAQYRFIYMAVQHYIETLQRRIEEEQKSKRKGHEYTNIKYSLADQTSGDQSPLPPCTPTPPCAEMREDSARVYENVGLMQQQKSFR
Description: SHP2 allosteric inhibitor enzyme activity assay (DiFMUP fluorescence). Type of test: biochemical. The note with it: class symbols. From the text:
SHP2 is activated by the binding of a bis-tyrosyl-phosphorylated peptide to its Src homologous 2 (SH2) domain. This subsequent activation step leads to the release of the automatic inhibition interface of SHP2, which in turn activates the SHP2 protein tyrosine phosphatase (PTP) and can be used for substrate recognition and reaction catalysis. The catalytic activity of SHP2 was monitored using the alternative DiFMUP in a rapid fluorescence assay format.
Assay procedures are as follows:
(1) Compound Formulation:
The compound of the present invention (10 mM stock solution) was diluted to a suitable multiple with 100% DMSO and assay buffer, and the final test concentration of the compound of the present invention was 1 μM, 0.333 μM, 0.111 μM, 0.0370 μM, 0.0124 μM, 0.00412 μM, 0.00137 μM, 0.00046 μM, 0.00015 μM, 0.00 μM;
(2) Preparation of Enzyme Reaction Working Fluid:
SHP2 enzyme activity was performed using a final reaction volume of 50 μL and the following assay buffer conditions in 96-well black polystyrene plates (flat bottom, low flange, non-bonding surface) (Perki Elmer, Cat #6005270) at room temperature: 60 mM HEPES, 75 mM NaCl, 75 mM KCl, 0.05% BRIJ-35, 1 mM EDTA, 5 mM DTT.
(3) Enzyme Catalytic Reaction and Data Monitoring:
Compounds of the present invention were added to the corresponding 96-well plates, and no compound and enzyme were provided as blank test wells. SHP2 Activating Peptide (IRS1_pY1172 (dPEG8)pY1222) was placed on ice for melting, and 0.5 μM was added per well, then 0.2 ng SHP2 protein samples were added to corresponding well plates, and incubated at room temperature for 1 hour. Substrate DiFMUP (Invitrogen, Cat #D6567) was added to the reaction at room temperature for 1 hour. Fluorescence signals were monitored using an enzyme reader (Envision, Perki Elmer) using excitation wavelengths and emission wavelengths of 340 nm and 450 nm, respectively.
Inhibition %=[1−(Conversion_sample−Conversion_min)/(Conversion_max−Conversion_min)]*100% Calculation formula: […]
where: Conversion_sample is the mean reading of the sample wells; Conversion_min is the mean reading of blank control wells, representing the reading of the wells without enzyme; Conversion_max is the mean of positive control wells, representing the reading of the wells without inhibitor.
The dose-response curve is fitted with GraphPad Prism software and IC50 was calculated by the “log[inhibitor] vs. response-variable slope” program.

Turning to `N[C@@H]1c2ccccc2CC12CCN(c1nc3[nH]nc(C4(c5ccccc5)CCCCC4)c3c(=O)[nH]1)CC2` [Example 99, (S)-6-(1-amino-1,3-dihydrospiro[indene-2,4′-piperidin]-1′-yl)-3-(1-phenylcyclohexyl)-1,5-dihydro-4H-pyrazolo[3,4-d]pyrimidin-4-one], the negative logarithm of the IC50 (pIC50) is 7.22 to 7.70.

Regarding `N[C@@H]1c2ccccc2CC12CCN(c1nc3[nH]nc(C4=C(F)CCc5nc(C(F)(F)F)ccc54)c3c(=O)[nH]1)CC2` [Example 187, (S)-6-(1-amino-1,3-dihydrospiro[indene-2,4′-piperidin]-1′-yl)-3-(6-fluoro-2-(trifluoromethyl)-7,8-dihydroquinolin-5-yl)-1,5-dihydro-4H-pyrazolo[3,4-d]pyrimidin-4-one], the pIC50 was not below 7.70.

Compound `CC1(C)C=C(c2n[nH]c3nc(N4CCC5(CC4)Cc4ccccc4[C@H]5N)[nH]c(=O)c23)c2cccnc2C1` [Example 143, (S)-6-(1-amino-1,3-dihydrospiro[indene-2,4′-piperidin]-1′-yl)-3-(7,7-dimethyl-7,8-dihydroquinolin-5-yl)-1,5-dihydro-4H-pyrazolo[3,4-d]pyrimidin-4-one] gave a pIC50 not below 7.70.

For the compound `N#Cc1cc(C2(c3n[nH]c4nc(N5CCC6(CC5)Cc5ccccc5[C@H]6N)[nH]c(=O)c34)CC2)ccn1` [Example 26, (S)-4-(1-(6-(1-amino-1,3-dihydrospiro[indene-2,4′-piperidin]-1′-yl)-4-oxo-4,5-dihydro-1H-pyrazolo[3,4-d]pyrimidin-3-yl)cyclopropyl)picolinonitrile], the pIC50 is not below 7.70.

In turn, `N[C@@H]1c2ccccc2CC12CCN(c1nc3[nH]nc(C4=CNS(=O)(=O)c5ccccc54)c3c(=O)[nH]1)CC2` [Example 181, (S)-6-(1-amino-1,3-dihydrospiro[indene-2,4′-piperidin]-1′-yl)-3-(1,1-dioxido-2H-benzo[e][1,2]thiazin-4-yl)-1,5-dihydro-4H-pyrazolo[3,4-d]pyrimidin-4-one] had a pIC50 not below 7.70.

In turn, `COCCOc1cccc(C2(c3n[nH]c4nc(N5CCC6(CC5)Cc5ccccc5[C@H]6N)[nH]c(=O)c34)CC2)c1` [Example 44, (S)-6-(1-amino-1,3-dihydrospiro[indene-2,4′-piperidin]-1′-yl)-3-(1-(3-(2-methoxyethoxy)phenyl)cycloprop-yl)-1,5-dihydro-4H-pyrazolo[3,4-d]pyrimidin-4-one] had a pIC50 not below 7.70.

With `N[C@@H]1COCC12CCN(c1nc3[nH]nc(C4(c5ccccc5)CC4)c3c(=O)[nH]1)CC2` [Example 271, (S)-6-(4-amino-2-oxa-8-azaspiro[4.5]decan-8-yl)-3-(1-phenylcyclopropyl)-1,5-dihydro-4H-pyrazolo[3,4-d]pyrimidin-4-one], the pIC50 was 7.22 to 7.70.

`C[C@@H]1OCC2(CCN(c3nc4[nH]nc(C5(c6ccccc6)CC5)c4c(=O)n3C)CC2)[C@@H]1N` [Example 272, 6-((3S,4S)-4-amino-3-methyl-2-oxa-8-azaspiro[4.5]decan-8-yl)-5-methyl-3-(1-phenylcyclopropyl)-1,5-dihydro-4H-pyrazolo[3,4-d]pyrimidin-4-one] had a pIC50 of 7.22 to 7.70.

`N[C@@H]1c2ccccc2CC12CCN(c1nc3[nH]nc(C4(c5cccc(C6CCOC6)c5)CC4)c3c(=O)[nH]1)CC2` (stereo partly drawn) [Example 39, 6-((S)-1-amino-1,3-dihydrospiro[indene-2,4′-piperidin]-1′-yl)-3-(1-(3-(tetrahydrofuran-3-yl)phenyl)cyclopropyl)-1,5-dihydro-4H-pyrazolo[3,4-d]pyrimidin-4-one]: the negative logarithm of the IC50 (pIC50) is not below 7.70.

Turning to `C[C@@H]1OCC2(CCN(C3=NC(N)=C(C4(c5ccccc5)CC4)C4=NCCCN43)CC2)[C@@H]1N` [Example 265, (3S,4S)-8-(8-amino-9-(1-phenylcyclopropyl)-3,4-dihydro-2H-pyrimido[1,6-a]pyrimidin-6-yl)-3-methyl-2-oxa-8-azaspiro[4.5]decan-4-amine], the negative logarithm of the IC50 (pIC50) was less than 7.22.

As to `CN1CC2(C=C(c3n[nH]c4nc(N5CCC6(CC5)Cc5ccccc5[C@H]6N)[nH]c(=O)c34)c3ccccc32)C1` [Example 171, (S)-6-(1-amino-1,3-dihydrospiro[indene-2,4′-piperidin]-1′-yl)-3-(1-methylspiro[azetidine-3,1′-inden]-3′-yl)-1,5-dihydro-4H-pyrazolo[3,4-d]pyrimidin-4-one], the pIC50 was not below 7.70.

The compound `Cc1ccc(C2(c3n[nH]c4nc(N5CCC6(CC5)CO[C@@H](C)[C@H]6N)[nH]c(=O)c34)CC2)cc1` [Example 300, 6-((3S,4S)-4-amino-3-methyl-2-oxa-8-azaspiro[4.5]decan-8-yl)-3-(1-(p-tolyl)cyclopropyl)-1,5-dihydro-4H-pyrazolo[3,4-d]pyrimidin-4-one] showed a negative-log IC50 (pIC50) of 7.22 to 7.70.

Compound `CC(=O)N1CC(F)(F)c2c1cccc2C1(c2n[nH]c3nc(N4CCC5(CC4)Cc4ccccc4[C@H]5N)[nH]c(=O)c23)CC1` [Example 60, (S)-3-(1-(1-acetyl-3,3-difluoroindolin-4-yl)cyclopropyl)-6-(1-amino-1,3-dihydrospiro[indene-2,4′-piperidin]-1′-yl)-1,5-dihydro-4H-pyrazolo[3,4-d]pyrimidin-4-one] gave a pIC50 not below 7.70.

The compound `N[C@@H]1c2ccccc2CC12CCN(c1nc3[nH]nc(C4=CS(=O)(=O)Cc5ccccc54)c3c(=O)[nH]1)CC2` [Example 182, (S)-6-(1-amino-1,3-dihydrospiro[indene-2,4′-piperidin]-1′-yl)-3-(2,2-dioxido-1H-isothiochromen-4-yl)-1,5-dihydro-4H-pyrazolo[3,4-d]pyrimidin-4-one] showed a pIC50 not below 7.70.

For `N[C@@H]1c2ccccc2CC12CCN(c1nc3[nH]nc(C4=CC(F)(F)c5ccccc54)c3c(=O)[nH]1)CC2` [Example 175, (S)-6-(1-amino-1,3-dihydrospiro[indene-2,4′-piperidin]-1′-yl)-3-(1,1-difluoro-1H-inden-3-yl)-1,5-dihydro-4H-pyrazolo[3,4-d]pyrimidin-4-one], the pIC50 is not below 7.70.

With `Cc1csc(C2(c3n[nH]c4nc(N5CCC6(CC5)CO[C@@H](C)[C@H]6N)[nH]c(=O)c34)CC2)n1` [Example 318, 6-((3S,4S)-4-amino-3-methyl-2-oxa-8-azaspiro[4.5]decan-8-yl)-3-(1-(4-methylthiazol-2-yl)cyclopropyl)-1,5-dihydro-4H-pyrazolo[3,4-d]pyrimidin-4-one], the pIC50 was 7.22 to 7.70.

The compound `N[C@@H]1c2ccccc2CC12CCN(c1nc3[nH]nc(C4=CCOc5cc(C(F)(F)F)ccc54)c3c(=O)[nH]1)CC2` [Example 168, (S)-6-(1-amino-1,3-dihydrospiro[indene-2,4′-piperidin]-1′-yl)-3-(7-(trifluoromethyl)-2H-chromen-4-yl)-1,5-dihydro-4H-pyrazolo[3,4-d]pyrimidin-4-one] showed a pIC50 not below 7.70.

Take `Cc1cnc(C2(c3n[nH]c4nc(N5CCC6(CC5)Cc5ccccc5[C@H]6N)[nH]c(=O)c34)CC2)o1` [Example 244, (S)-6-(1-amino-1,3-dihydrospiro[indene-2,4′-piperidin]-1′-yl)-3-(1-(5-methyloxazol-2-yl)cyclopropyl)-1,5-dihydro-4H-pyrazolo[3,4-d]pyrimidin-4-one]: the pIC50 was not below 7.70.

Consider `N[C@@H]1c2ccccc2CC12CCN(c1nc3[nH]nc(C4(c5ccccc5)CC4)c3c3nncn13)CC2` [Example 3], for which the pIC50 was not below 7.70.

`N[C@@H]1c2ccccc2CC12CCN(c1nc3[nH]nc(-c4cc(=O)oc5ccccc45)c3c(=O)[nH]1)CC2` [Example 174, (S)-6-(1-amino-1,3-dihydrospiro[indene-2,4′-piperidin]-1′-yl)-3-(2-oxo-2H-chromen-4-yl)-1,5-dihydro-4H-pyrazolo[3,4-d]pyrimidin-4-one] showed a pIC50 not below 7.70.
